Calls of active or inactive are those of the source.
How the values were obtained:
[1] = molecular target: NAD-dependent protein deacylase sirtuin-5, mitochondrial (Homo sapiens, UniProt Q9NXA8); experiment: sirtuin-5 deacylation blockers, concentration series – biochemical, fluorescence imaging, cherry-pick, set 5, dose response (AID 720591);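 also: desuccinylation of succinyl peptide AMC substrate read as fluorescence after trypsin release; potency of inhibitors that lower fluorescence and may act on trypsin instead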
Chain of NAD-dependent protein deacylase sirtuin-5, mitochondrial (Q9NXA8 whole entry): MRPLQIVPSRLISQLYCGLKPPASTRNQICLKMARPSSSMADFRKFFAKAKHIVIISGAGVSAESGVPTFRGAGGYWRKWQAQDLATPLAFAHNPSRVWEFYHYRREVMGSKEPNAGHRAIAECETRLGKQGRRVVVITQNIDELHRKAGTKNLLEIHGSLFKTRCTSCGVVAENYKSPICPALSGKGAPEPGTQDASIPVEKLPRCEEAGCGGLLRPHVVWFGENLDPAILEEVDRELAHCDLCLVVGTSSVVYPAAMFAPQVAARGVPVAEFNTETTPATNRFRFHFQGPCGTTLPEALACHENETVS

[2] = molecular target: T1, Mannose-6-phosphate isomerase (Homo sapiens, UniProt P34949); experiment: MPI inhibition at elevated mannose 6-phosphate – biochemical, fluorescence intensity, high mannose 6-phosphate, primary screen (AID 1220)
T1 sequence (P34949 whole entry): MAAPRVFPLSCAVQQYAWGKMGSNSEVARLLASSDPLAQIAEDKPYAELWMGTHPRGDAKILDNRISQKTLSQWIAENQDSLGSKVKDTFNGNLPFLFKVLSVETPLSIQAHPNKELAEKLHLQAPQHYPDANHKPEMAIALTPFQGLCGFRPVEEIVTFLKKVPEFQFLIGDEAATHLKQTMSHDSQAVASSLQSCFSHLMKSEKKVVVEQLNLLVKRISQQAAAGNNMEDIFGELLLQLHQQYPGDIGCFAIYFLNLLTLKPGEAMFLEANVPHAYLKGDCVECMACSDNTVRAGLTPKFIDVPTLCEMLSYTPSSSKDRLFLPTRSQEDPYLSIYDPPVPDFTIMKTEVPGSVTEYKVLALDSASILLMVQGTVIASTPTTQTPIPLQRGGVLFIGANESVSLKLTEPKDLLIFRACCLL

[3] = Luminescence Cell-Based Dose Confirmation HTS to Identify Activators of 5'UTR Stem-Loop Driven Alpha-Synuclein mRNA Translation in H4 Neuroglioblastoma Cells. [Related pubchem assays: 1829 (Project Summary), 1814 (Primary HTS)]; format: functional
[4] = Luminescence Cell-Based Dose Response HTS to Identify Activators of Luciferase Translation or Activity in H4 […] Cells. [Related pubchem assays: 1829 (Project Summary), 1814 (Primary HTS)]; format: functional
[5] = test system: H4; experiment: Luminescence Cell-Based Dose Response HTS to Identify Activators of 5'UTR Stem-Loop Driven Prion Protein mRNA Translation in H4 Neuroglioblastoma Cells. [Related pubchem assays: 1829 (Project Summary), 1814 (Primary HTS)]; format: functional; details: Homo sapiens
[6] = cells; format: functional, cell-based
[7] = molecular target: T2, Trace amine-associated receptor 1 (Homo sapiens, UniProt Q96RJ0); experiment: Fluorescence-based cell-based high throughput dose response assay to identify agonists of the human trace amine associated receptor 1 (TAAR1).; format: functional
T2 sequence (Q96RJ0 whole entry): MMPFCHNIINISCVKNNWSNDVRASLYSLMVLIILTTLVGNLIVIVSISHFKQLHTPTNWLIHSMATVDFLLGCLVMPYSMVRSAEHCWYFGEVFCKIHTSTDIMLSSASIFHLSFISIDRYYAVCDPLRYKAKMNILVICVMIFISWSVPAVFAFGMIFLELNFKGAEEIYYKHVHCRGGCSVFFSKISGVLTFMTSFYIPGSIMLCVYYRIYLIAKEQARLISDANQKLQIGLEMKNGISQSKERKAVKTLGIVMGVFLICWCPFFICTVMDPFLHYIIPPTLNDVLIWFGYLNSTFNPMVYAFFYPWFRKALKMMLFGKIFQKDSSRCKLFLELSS

[8] = molecular target: T2, Trace amine-associated receptor 1; experiment: Counterscreen for agonists of the human trace amine associated receptor 1 (hTAAR1): Fluorescence-based cell-based high throughput dose response assay to identify hTAAR1 agonist that also desensitize TAAR1 receptor response.; format: functional
[9] = cells; format: functional, cell-based; remark: listed apart in the source
[10] = viability loss in THP-1 monocytes – THP-1 cells, cytotoxicity control for Vif-APOBEC3G degradation inhibitor project, dose response (AID 1117359); format: functional; details: THP-1
[11] = cells; format: functional, cell-based; remark: listed apart in the source
[12] = molecular target: T3, Nuclear receptor subfamily 0 group B member 1 (Homo sapiens, UniProt P51843); format: functional, cell-based;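 also: HEK293T cells transfected with SF-1 and DAX-1 plus StAR promoter luciferase reporter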
T3 sequence (P51843 whole entry): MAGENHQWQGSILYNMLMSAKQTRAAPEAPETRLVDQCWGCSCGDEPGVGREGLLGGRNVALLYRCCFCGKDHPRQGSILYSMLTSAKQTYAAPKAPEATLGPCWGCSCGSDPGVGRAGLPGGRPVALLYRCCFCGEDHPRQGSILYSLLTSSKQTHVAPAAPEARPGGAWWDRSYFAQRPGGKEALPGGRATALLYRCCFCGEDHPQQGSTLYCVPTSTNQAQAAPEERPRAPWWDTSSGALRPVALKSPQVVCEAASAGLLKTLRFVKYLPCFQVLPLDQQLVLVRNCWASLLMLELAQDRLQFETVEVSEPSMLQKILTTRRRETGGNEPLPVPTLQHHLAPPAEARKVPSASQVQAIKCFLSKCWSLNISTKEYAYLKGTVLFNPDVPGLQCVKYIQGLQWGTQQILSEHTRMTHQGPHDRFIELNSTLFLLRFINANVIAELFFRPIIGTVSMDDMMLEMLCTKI

[13] = molecular target: Paired box protein Pax-8 (Homo sapiens, UniProt Q06710); experiment: PAX8 transcriptional activity inhibition in RMG-I – RMG-I cells, luciferase, cherry-pick, dose response (AID 687027); format: functional, cell-based;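 also: luciferase reporter driven by Pax8 target thyroperoxidase promoter measured by SteadyGlo luminescence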
Chain of Paired box protein Pax-8 (Q06710 whole entry): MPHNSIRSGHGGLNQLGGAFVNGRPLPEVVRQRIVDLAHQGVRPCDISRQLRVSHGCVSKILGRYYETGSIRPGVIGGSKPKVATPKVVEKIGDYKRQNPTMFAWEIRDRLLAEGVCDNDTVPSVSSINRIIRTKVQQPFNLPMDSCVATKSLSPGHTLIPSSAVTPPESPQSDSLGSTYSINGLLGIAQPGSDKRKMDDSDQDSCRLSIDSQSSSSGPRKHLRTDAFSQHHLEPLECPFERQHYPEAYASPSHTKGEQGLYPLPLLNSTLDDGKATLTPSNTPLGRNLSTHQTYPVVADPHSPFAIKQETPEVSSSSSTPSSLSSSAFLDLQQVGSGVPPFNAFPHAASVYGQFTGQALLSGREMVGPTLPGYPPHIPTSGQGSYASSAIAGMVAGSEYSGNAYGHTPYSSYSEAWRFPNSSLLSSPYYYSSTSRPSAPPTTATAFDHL

[14] = M. tuberculosis H37Rv growth inhibitors, H37Rv strain (AID 1626); format: functional

Oc1nc(Cc2ccc(F)cc2)nc2scc(-c3ccc(F)cc3)c12
AC50 [1]: 18 µM (active)

Cc1c(C(=O)NC(C)C)oc2c1-c1n[nH]cc1CC2
IC50 [2]: > 50 µM (not active)

COc1ccc(OC(=O)NCCc2ccccc2)cc1
EC50 [3]: 29 µM (active)
EC50 [4]: 49 µM (active)
EC50 [5]: 16.1 µM (active)
IC50 [6]: > 29.9 µM (inactive)
EC50 [7]: 0.535 µM (active)
IC50 [8]: > 29.9 µM (inactive)
EC50 [9]: > 29.9 µM (inactive)

Cn1cccc1/C=C1/C(=O)NC(=O)N(Cc2ccccc2)C1=O
CC50 [10]: > 40 µM (active)

COc1ccccc1CCNC(=O)C(=O)NCC1OCCN1S(=O)(=O)c1ccc(C)cc1 (stereo not given)
IC50 [6]: > 29.9 µM (inactive)
EC50 [7]: 2.51 µM (active)
IC50 [8]: 7.91 µM (active)
EC50 [9]: > 29.9 µM (inactive)

CC(=Nc1ccccc1)C1=C(O)C(Cc2ccccc2)NC1=O (stereo not given)
IC50 [11]: > 67.6 µM (inactive)
IC50 [12]: 15.8 µM (inactive)

CC(=O)Nc1ccc(-c2ccnc3c2CC(C(=O)NCc2ccccc2)O3)cc1 (stereo not given)
IC50 [11]: > 67.5 µM (inactive)
IC50 [12]: > 67.5 µM (inactive)
AC50 [13]: 1.5 µM (active)

O=C(/C=C/C(=O)N1CCc2ccccc2C1)N1CCc2ccccc2C1
IC50 [6]: > 29.9 µM (inactive)
EC50 [7]: 1.14 µM (active)
IC50 [8]: 4.67 µM (active)
EC50 [9]: > 29.9 µM (inactive)

O/N=C/c1ccc(-c2cc(Cl)ccc2Cl)o1
IC50 [14]: > 100 µM (active)

Nc1nnc(SCc2ccc(F)cc2)s1
IC50 [14]: > 100 µM (active)

From ChEMBL document CHEMBL1201862, “PubChem BioAssay data set” (2004)
